Assay [1] has as its target T1, muscarinic receptors (M1-site, pirenzepine sensitive site) (Rattus norvegicus, UniProt P08482).
T1 construct: Fresh cortex (0.1-1 g) from male Wistar rats (150-200 g) is homogenized; from tissue; host or cells: rat (male Wistar) cerebral cortex membranes
T1 sequence (P08482 1-460): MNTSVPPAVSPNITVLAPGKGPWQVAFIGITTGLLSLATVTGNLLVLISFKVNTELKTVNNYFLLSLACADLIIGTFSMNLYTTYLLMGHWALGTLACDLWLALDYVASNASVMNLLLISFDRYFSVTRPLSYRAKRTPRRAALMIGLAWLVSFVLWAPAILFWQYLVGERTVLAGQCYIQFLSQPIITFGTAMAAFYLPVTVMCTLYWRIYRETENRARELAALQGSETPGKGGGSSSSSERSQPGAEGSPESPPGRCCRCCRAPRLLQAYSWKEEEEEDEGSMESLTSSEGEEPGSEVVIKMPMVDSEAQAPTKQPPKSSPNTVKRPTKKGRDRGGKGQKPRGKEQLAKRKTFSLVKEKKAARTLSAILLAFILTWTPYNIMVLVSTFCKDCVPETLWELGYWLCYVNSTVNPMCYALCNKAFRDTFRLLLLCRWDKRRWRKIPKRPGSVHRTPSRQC
In words: Inhibition of 3H-PRZ (pirenzepine, [N-methyl-3H]) binding to rat cerebral cortex membranes. The conditions noted are these: 1.0 nM 3H-Pirenzepine, 60 min at 20° C. The procedure:
Furthermore the pharmacological properties of the compounds of the invention can also be illustrated by determining their capability to inhibit ^3H-PRZ (pirenzepine, [N-methyl-^3H]) binding to rat cerebral cortex membranes. Pirenzepine binds selectively to subtype of muscarinic receptors. Historically the type is named the M1-site, whereas pirenzepine sensitive site would be more appropriate. Although selective for M1-sites pirenzepine also interact with M2-sites.
All preparations are performed at 0-4° C. unless otherwise indicated. Fresh cortex (0.1-1 g) from male Wistar rats (150-200 g) is homogenized for 5-10 s. in 10 ml 20 mM Hepes pH: 7.4, with an Ultra-Turrax homogenizer. The homogenizer is rinsed with 2×10 ml of buffer and the combined suspension centrifuged for 15 min at 40,000×g. The pellet is washed three times with buffer. In each step the pellet is homogenized as before in 3×10 ml of buffer and centrifuged for 10 min at 40,000×g.
The final pellet is homogenized in 20 mM Hepes pH: 7.4 (100 ml per g of original tissue) and used for binding assay. Aliquots of 0.5 ml is added 20 μl of test solution and 25 μl of ^3H-Pirenzepine (1.0 nM, final conc.), mixed and incubated for 60 min at 20° C. Non-specific binding is determined in triplicate using atropine (1 μg/ml, final conc.) as the test substance. After incubation samples are added 5 ml of ice-cold buffer and poured directly onto Whatman GF/C glass fiber filters under suction and immediately washed 2 times with 5 ml of ice-cold buffer. The amount of radioactivity on the filters are determined by conventional liquid scintillation counting. Specific binding is total binding minus non-specific binding.
Test substances are dissolved in 10 ml water, at a concentration of 0.22 mg/ml. 25-75% inhibition of specific binding must be obtained before calculation of IC50.
The test value will be given as IC50 (the concentration (nM) of the test substance which inhibits the specific binding of ^3H-PRZ by 50%).
(§1) IC50=(applied test substance concentration)×(Cx/Co−Cx)nM
(§2) where Co is specific binding in control assays and Cx is the specific binding in the test assay. (The calculations assume normal mass-action kinetics).

In assay [2] the target is muscarinic acetylcholine receptors. Nature of the assay: Inhibition of specific binding of 3H-Oxotremorine-M (3H-Oxo) to rat cortex membranes. The conditions noted are these: rat cortex homogenate, 1.0 nM 3H-Oxotremorine, 30 min at 25° C.
Text: The pharmacological properties of the compounds of the invention can be illustrated by determining their capability to inhibit the specific binding of ^3H-Oxotremorine-M (^3H-Oxo). Birdsdall N. J. M., Hulme E. C., and Burgen A. S. V. (1980). “The Character of Muscarinic Receptors in Different Regions of the Rat Brain”. Proc. Roy. Soc. London (Series B) 207, 1.
^3H-Oxo labels muscarinic receptor in the CNS (with a preference for agonist domains of the receptors). Three different sites are labelled by ^3H-Oxo. […] Using the present experimental conditions only the high and medium affinity sites are determined.
The inhibitory effects of compounds on ^3H-Oxo binding reflects the affinity for muscarinic acetylcholine receptors.
All preparations are performed at 0-4° C. unless otherwise indicated. Fresh cortex (0.1-1 g) from male Wistar rats (150-250 g) is homogenized for 5-10 s in 10 ml 20 mM Hepes pH: 7.4, with an Ultra-Turrax homogenizer. The homogenizer is rinsed with 10 ml of buffer and the combined suspension centrifuged for 15 min. at 40,000×g. The pellet is washed three times with buffer. In each step the pellet is homogenized as before in 2×10 ml of buffer and centrifuged for 10 min. at 40,000×g.
The final pellet is homogenized in 20 mM Hepes pH: 7.4 (100 ml per g of original tissue) and used for binding assay. Aliquots of 0.5 ml is added 25 μl of test solution and 25 μl of ^3H-Oxotremorine (1.0 nM, final concentration) mixed and incubated for 30 min. at 25° C. Non-specific binding is determined in triplicate using arecoline (1 μg/ml, final concentration) as the test substance. After incubation samples are added 5 ml of ice-cold buffer and poured directly onto Whatman GF/C glass fiber filters under suction and immediately washed 2 times with 5 ml of ice-cold buffer. The amount of radioactivity on the filters are determined by conventional liquid scintillation counting. Specific binding is total binding minus non specific binding.
Test substances are dissolved in 10 ml water (if necessary heated on a steambath for less than 5 min.) at a concentration of 2.2 mg/ml. 25-75% inhibition of specific binding must be obtained before calculation of IC50.
The test value will be given as IC50 (the concentration (nM) of the test substance which inhibits the specific binding of ^3H-Oxo by 50%).
as §1, §2

Among the data in US6720342B2, “Heterocyclic compounds and their preparation and use” (Novo Nordisk A/S, priority 1996, dated 2004) are IC50 values, retold here.

pIC50: −log10 of the molar value. Structures can show the parent of a compound that is named as a salt.

With `C1CC(COc2nsnc2OC2CN3CCC2C3)C1` (stereo not drawn) [Compound 41, Endo 3-(3-cyclobutylmethyloxy-1,2,5-thiadiazol-4-yloxy)-1-azabicyclo-[2.2.1]heptane, oxalate], the negative-log IC50 (pIC50) (as a rule, the negative decadic logarithm of the IC50, by convention in mol/L) in assay [1] is 8.04.

Consider `COc1cccc(C#CC(C)Oc2nsnc2OC2CN3CCC2C3)c1` (stereo not drawn) [Compound 17, Endo 3-(3-[4-(3-methoxyphenyl)-3-butyn-2-yloxy]-1,2,5-thiadiazol-4-yloxy)-1-azabicyclo[2.2.1]heptane, oxalate], for which the pIC50 in assay [1] is 7.32; in assay [2] it was 7.14.

On to `C(#Cc1cccs1)COc1nsnc1O[C@H]1CN2CC[C@@H]1C2` [Compound 37, Endo 3-(3-[3-(2-thienyl)-2-propyn-1-yloxy]-1,2,5-thiadiazol-4-yloxy)-1-azabicyclo[2.2.1]heptane, oxalate], for which the values for the pIC50 in assay [1] and in assay [2] were 8.06 and 8.66, respectively.

In the case of `CCCSc1nsnc1OC1CN2CCC1C2` (stereo not drawn) [Compound 2, Endo 3-(3-propylthio-1,2,5-thiadiazol-4-yloxy)-1-azabicyclo[2.2.1]heptane, oxalate], the negative logarithm of the IC50 (pIC50) in assay [1] is 8.38; in assay [2], 8.85.

As for `COc1cccc(C#CCOc2nsnc2OC2CN3CCC2C3)c1` (stereo not drawn) [Compound 6, Endo 3-(3-[3-(3-methoxyphenyl)-2-propynyl-1-oxy]-1,2,5-thiadiazol-4-yloxy)-1-azabicyclo[2.2.1]heptane, oxalate], in assay [1], the pIC50 was 7.77.

`CC=CCOc1nsnc1OC1CN2CCC1C2` (stereo not drawn) [Compound 10, Endo 3-(3-[2-butenyl-1-oxy]-1,2,5-thiadiazol-4-yloxy)-1-azabicyclo[2.2.1]heptane, oxalate]: the figures for the pIC50 in assay [1] and in assay [2] were 7.70 and 8.28, respectively.

Regarding `FC(F)(F)CCCOc1nsnc1OC1CN2CCC1C2` (stereo not drawn) [Compound 15, Endo 3-(3-[4,4,4-trifluorobutyl-1-oxy]-1,2,5-thiadiazol-4-yloxy)-1-azabicyclo[2.2.1]heptane, oxalate], the results for the pIC50 in assay [1] and in assay [2] were 7.85 and 7.74, respectively.

As to `FCCSc1nsnc1OC1CN2CCC1C2` (stereo not drawn) [Compound 34, Endo 3-(3-[2-fluoroethyl-1-thio]-1,2,5-thiadiazol-4-yloxy)-1-azabicyclo-[2.2.1]heptane, oxalate], the pIC50 in assay [1] was 7.51.

`Fc1cccc(C#CCOc2nsnc2OC2CN3CCC2C3)c1` (stereo not drawn) [Compound 28, Endo 3-(3-(3-(3-fluorophenyl)-2-propyn-1-yloxy)-1,2,5-thiadiazol-4-yloxy-1-azabicyclo[2.2.1]heptane, oxalate]: in assay [2], the pIC50 is 8.26.

On to `Fc1ccc(C#CCOc2nsnc2OC2CN3CCC2C3)cc1` (stereo not drawn) [Compound 4, Endo 3-(3-[3-(4-fluorophenyl)-2-propynyl-1-oxy]-1,2,5-thiadiazol-4-yloxy)-1-azabicyclo[2.2.1]heptane, oxalate], for which the negative logarithm of the IC50 (pIC50) in assay [1] is 8.08; in assay [2] it was 8.10.

For the compound `C(#Cc1ccccn1)COc1nsnc1OC1CN2CCC1C2` (stereo not drawn) [Compound 25, Endo 3-(3-(2-pyridyl)-2-propyn-1-yloxy)-1,2,5-thiadiazol-4-yloxy)-1-azabicyclo[2.2.1]heptane, dioxalate], the results for the pIC50 in assay [1] and in assay [2] were 8.35 and 8.77, respectively.

`FC(F)(F)c1cccc(C#CCOc2nsnc2OC2CN3CCC2C3)c1` (stereo not drawn) [Compound 20, Endo 3-(3-(3-(3-trifluoromethylphenyl)-2-propynyl-1-oxy)-1,2,5-thiadiazol-4-yloxy)-1-azabicyclo[2.2.1]heptane, oxalate] showed a negative logarithm of the IC50 (pIC50) in assay [1] of 7.96.

Consider `Fc1cc(C(F)(F)F)ccc1COc1nsnc1OC1CN2CCC1C2` (stereo not drawn) [Compound 16, Endo 3-(3-[2-fluoro-4-(trifluoromethyl)-benzyloxy]-1,2,5-thiadiazol-4-yloxy)-1-azabicyclo[2.2.1]heptane, oxalate], for which the pIC50 was 6.89 in assay [1] and 6.83 in assay [2].

As for `FC(F)(F)CCCSc1nsnc1OC1CN2CCC1C2` (stereo not drawn) [Compound 30, Endo 3-(3-(4,4,4-trifluorobutylthio)-1,2,5-thiadiazol-4-yloxy)-1-azabicyclo-[2.2.1]heptane, oxalate], the pIC50 in assay [1] was 8.47.

As to `CC(C)=CCOc1nsnc1OC1CN2CCC1C2` (stereo not drawn) [Compound 7, Endo 3-(3-[3-methyl-2-butenyl-1-oxy]-1,2,5-thiadiazol-4-yloxy)-1-azabicyclo[2.2.1]heptane, oxalate], the pIC50 in assay [1] is 7.62; in assay [2], 8.00.

Regarding `FC(F)(F)Oc1ccc(COc2nsnc2OC2CN3CCC2C3)cc1` (stereo not drawn) [Compound 14, Endo 3-(3-[4-trifluoromethoxybenzyloxy]-1,2,5-thiadiazol-4-yloxy)-1-azabicyclo[2.2.1]heptane, oxalate], the negative logarithm of the IC50 (pIC50) in assay [1] was 7.49; in assay [2] it was 7.31.

As for `COCCOc1nsnc1OC1CN2CCC1C2` (stereo not drawn) [Compound 13, Endo 3-(3-methoxyethoxy-1,2,5-thiadiazol-4-yloxy)-1-azabicyclo[2.2.1]heptane, oxalate], the pIC50 in assay [1] is 7.36; in assay [2], 8.37.

For the compound `C(#Cc1ccccc1)COc1nsnc1OC1CN2CCC1C2` (stereo not drawn) [Compound 5, Endo 3-(3-[3-phenyl-2-propynyl-1-oxy]-1,2,5-thiadiazol-4-yloxy)-1-azabicyclo[2.2.1]heptane, oxalate], the figures for the pIC50 in assay [1] and in assay [2] were 7.85 and 8.00, respectively.

On to `C(#Cc1ccoc1)COc1nsnc1OC1CN2CCC1C2` (stereo not drawn) [Compound 26, Endo 3-(3-(3-(3-furyl)-2-propyn-1-yloxy)-1,2,5-thiadiazol-4-yloxy)-1-azabicyclo[2.2.1]heptane, oxalate], for which the values for the negative logarithm of the IC50 (pIC50) in assay [1] and in assay [2] were 8.41 and 8.89, respectively.

As to `Fc1ccc(CSc2nsnc2OC2CN3CCC2C3)c(F)c1` (stereo not drawn) [Compound 33, Endo 3-(3-[2,4-difluorobenzylthio]-1,2,5-thiadiazol-4-yloxy)-1-azabicyclo-[2.2.1]heptane, oxalate], the negative-log IC50 (pIC50) in assay [1] was 7.80; in assay [2], 7.08.

For `Fc1ccc(COc2nsnc2OC2CN3CCC2C3)cc1` (stereo not drawn) [Compound 9, Endo 3-(3-[4-fluorobenzyloxy]-1,2,5-thiadiazol-4-yloxy)-1-azabicyclo-[2.2.1]heptane, oxalate], the values for the pIC50 in assay [1] and in assay [2] were 7.52 and 7.60, respectively.

In assay [1], `N#Cc1ccc(CSc2nsnc2OC2CN3CCC2C3)cc1` (stereo not drawn) [Compound 31, Endo 3-(3-[4-cyanobenzylthio]-1,2,5-thiadiazol-4-yloxy)-1-azabicyclo-[2.2.1]heptane, oxalate] had a pIC50 of 7.64.
